In patent publication US9604981B2, “IP receptor agonist heterocyclic compounds” (Novartis AG, priority 2013, dated 2017):

Biological target: T1, IP receptor (Homo sapiens, UniProt P43119)
T1 construct: expressed in transfected cells; host or cells: CHO cells (CHO-IP)
Assay: cAMP accumulation in CHO cells stably expressing the IP receptor (AlphaScreen)
Type: cell-based
Settings: 1 hour at room temperature
Procedure: Activity of compounds at the IP receptor (IP receptor) is assessed by measuring cAMP accumulation in CHO cells stably expressing the IP receptor (CHO-IP) using the PerkinElmer AlphaScreen assay. This technology measures the endogenous production of cAMP, in a non-radioactive luminescence proximity homogenous assay. A biological reaction occurs between streptavidin coated donor beads, biotinylated cAMP and anti-cAMP acceptor beads, bringing the donor and acceptor beads close enough together so that upon excitation a fluorescence signal is produced. On production of endogenous cAMP, competition between the biotinylated cAMP and cellular-derived cAMP causes a reduction in the fluorescent signal. The reduction in signal is proportional to the amount of cAMP being produced, thus it is possible to quantify the amount of cAMP being produced on stimulation with agonist.
Test and reference compounds are prepared at 100× [final] in 100% DMSO, and diluted 1:3 using a Biomek Fx (Beckman Coulter). This is followed by an intermediate dilution to give 5× [final] in assay buffer (HBSS containing 5 mM HEPES, 0.1% (w/v) BSA). […] The assay plate is then incubated at room temperature in the dark, for 60 minutes with gentle shaking, and read on the Envision plate reader (Perkin Elmer). […]

T1 sequence (P43119 whole entry): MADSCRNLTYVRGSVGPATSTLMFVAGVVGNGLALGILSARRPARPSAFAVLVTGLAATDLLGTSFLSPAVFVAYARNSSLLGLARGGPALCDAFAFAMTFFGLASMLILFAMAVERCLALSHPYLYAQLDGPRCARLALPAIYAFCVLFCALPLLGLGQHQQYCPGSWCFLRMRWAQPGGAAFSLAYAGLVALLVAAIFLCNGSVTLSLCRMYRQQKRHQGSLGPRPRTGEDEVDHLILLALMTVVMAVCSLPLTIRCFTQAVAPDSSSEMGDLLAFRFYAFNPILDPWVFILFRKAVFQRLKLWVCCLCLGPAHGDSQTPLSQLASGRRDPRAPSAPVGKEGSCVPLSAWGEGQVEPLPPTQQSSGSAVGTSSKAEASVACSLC

Cc1ccc(-c2cc3c(nc2-c2ccc(C)cc2)CCCN3CCCCCCC(=O)O)cc1 [Example 1, 7-(6,7-Di-p-tolyl-3,4-dihydro-1,5-naphthyridin-1(2H)-yl)heptanoic acid] was tested, and the EC50 was 0.455 nM.
